The test system of one data set is H1.2. The note with it: reprogramming and ground state pluripotent stem cells; cited from earlier work. The text has this:
We previously identified a role for PADI4 during reprogramming and ground state pluripotent stem cells, where the deiminase regulates key pluripotency genes via a mechanism involving citrullination of H1.2. […] Here, we report that the chromodomain of HP1γ is also citrullinated in mESCs, at R38 and R39. […] Furthermore, mutations in HP1γ designed to mimic the loss of charge caused by citrullination inhibit binding ...

Another data set has as its system methylated H3K9. Conditions: at gene promoters; cited from earlier work. From the text:
It is possible that PADI4 targets both H3R8 and HP1γ bound to the same H3N-terminal tail. The Nanog gene may represent an important example of such a locus, since chromatin immunoprecipitation experiments have shown that both HP1γ and PADI4 bind to its promoter and regulate gene expression in stem cells.

The subject of a further data set is histone H3. In words: citrullination of histone H3 by PADI4. The class given is biochemical. Conditions: calcium, anti-H3R2-citrulline and Pan-Cit immunoblot. How it is done:
For immunoblotting, cells were lysed in 2 × Laemmli buffer and sonicated in a water bath (Fisherbrand) for 3 min to shear genomic DNA, spun down at full speed in a microfuge for 15 min and incubated for 5 min at 95 °C. Proteins were resolved by SDS-PAGE, transferred to nitrocellulose membrane (Millipore) using wet transfer (transfer buffer: 192 mM glycine, 25 mM Tris.HCl pH8.8) and incubated in blocking solution (5% BSA in TBS containing 0.5% Tween-20 for citrulline sensitive antibodies and 5% non-fat milk powder in TBS containing 0.1% Tween-20 for all other antibodies) for 1 h at room temperature (RT). Membranes were incubated with primary antibody at 4 °C o/n and appropriate HRP-conjugated secondary antibody for 1 h at RT. Membranes were then incubated for enhanced chemiluminescence (ECL, Promega), and proteins were detected by exposure to X-ray film or using the ChemiDoc™ MP imaging system (Bio-Rad). Images were quantified using ImageJ analysis software. Primary antibodies diluted in blocking solution were used to detect citrullinated histone H3R2 (H3R2-Cit, Abcam ab176843 at 1:1000 dilution), HP1γ (Millipore 05-690 MAB clone 42s2 [16] at 1:1000 dilution), β-Tubulin (Abcam ab6046 at 1:1000 dilution) and peptidyl-citrulline (Millipore MABN328, clone F95 [48] at 1:1000 dilution). […]
On the technique in general: Immunoblotting shows a protein as a band on a membrane.

Peptidylarginine deiminase 4 [PADI4]: the “effect of H1.2 citrullination” value in the data set with H1.2 is “eviction from chromatin and global chromatin decompaction”. Also, the “effect of H3R8 citrullination on HP1 binding to adjacent methylated H3K9” value with methylated H3K9 was “reduces the binding affinity of HP1 to adjacent methylated H3K9”. Also, in the data set on histone H3, the “enzymatic activity of recombinant PADI4 on histone H3” value was “confirmed by citrullination of histone H3”.
